Values joined by “and” are separate entries in the source; they are usually repeats but may differ in a detail not shown here. Equal entries are not always repeated. “Also recorded” adds a separate entry of the source.
Columns and labels:
[1] = Total firocoxib exposure in piglets as a percentage of sow AUC; format: in vivo, swine
Procedure: The relative transfer of firocoxib from medicated sows to piglets was evaluated by comparing the piglet plasma drug concentration as a percentage of the sow plasma drug concentration at each time point. Total piglet exposure to firocoxib via milk consumed from treated dams was evaluated by comparing the firocoxib AUC for the piglets with the drug AUC calculated for the corresponding dams from each treatment. Exposure percentages were determined using the equation:
[formula] Statistical Analysis

plasma cortisol = experiment: Plasma cortisol concentrations in piglets after processing (castration, tail docking, teeth clipping); format: in vivo, swine
Procedure: Castration, teeth clipping, and tail docking were completed for each male piglet between the 6-h and 8-h blood collection time points. […] Castration was performed using a number 10 scalpel blade to making two vertical incisions approximately 2-3 cm long in the skin covering the testicles. The testicles were then marsupialized, and manual pressure was applied to the spermatic cord until it separated from the piglet's body. Side-cutter pliers were used to remove the tail at the 6th coccygeal vertebral body, and the canine teeth were filed flush with the gingival tissue.
To accommodate blood volume restrictions, blood samples for cortisol determination were collected from three randomly selected piglets/litter (two male and one female piglet at each time point) prior to processing (6 h after firocoxib injection in the sow) and after processing at approximately […] after drug injection in the sow. These time points corresponded to approximately 0, 2, 6, 18, 42, 66 and 90 h after processing. The blood for cortisol analysis was collected in 3-mL heparinized blood collection tubes (BD Vacutainer, Franklin Lakes, N.J.) and then centrifuged for 10 min at 1,500×g. The plasma was collected, then immediately frozen and stored at −80° C. The analyses for plasma cortisol concentrations were performed within 60 d after sample collection and within 10 consecutive days once the analyses were started. Plasma cortisol concentrations were determined using a commercial radioimmunoassay kit (CortiCote I-125, MP Biomedicals, Santa Ana, Calif.). […]
Plasma cortisol concentrations and ADG were analyzed using a nonlinear mixed-effects analysis incorporating both fixed effects and random effects (PROC GLMMIX; SAS university edition v9.04.01, SAS Institute, Cary, N.C.). […]
To account for the fact that not all the piglets were blood sampled at every time point due to blood volume restrictions in piglets, individual piglet peak cortisol concentrations (CortCmax) were calculated for each piglet after processing by visual inspection of the data. […]

[2] = Necropsy and histopathology examination of lactating sows at 21 d; conditions: for Kidney: Focal interstitial nephritis (number of sows) / Kidney: Mild tubular ectasia (number of sows) / Kidney: Within normal limits (number of sows) / Liver: Within normal limits (number of sows) / Small Intestine: Within normal limits (number of sows) / Stomach: Within normal limits (number of sows): 21 d
Procedure: Thereafter, sows and piglets in all groups were humanely euthanized and examined for macroscopic signs of NSAID toxicity. Necropsies were performed on all animals to inspect for macroscopic signs of NSAID toxicity. Samples of kidney, liver, small intestine and stomach were sectioned into 0.5-1 cm slices and placed in plastic jars containing 10% buffered formalin in a 10:1 formalin:tissue ratio for histopathology examination.
Formalin-fixed sections of kidney, liver, small intestine and stomach from sows and 3 piglets/litter were trimmed and positioned in cassettes loaded into an automated tissue processor (Sakura VIP 5, Sakura Finetek, Torrance, Calif.) for overnight paraffin infiltration. Processed tissues in cassettes were then placed in a paraffin bath (Sakura Tissue-Tek TEC 5, Sakura Finetek, Torrance, Calif.) after which they were removed from the cassette and oriented in molds. […] Tissue sections were cut at 4 microns from the cooled blocks. Paraffin ribbons with tissue were then laid out on a water bath and the floating tissue sections were collected onto microscope slides. The unstained tissue sections were then mounted on the slide and dried at 60° C. for 20 minutes. Finally, the tissue was deparaffinized and rehydrated for staining by transfer through xylene and a series of decreasing concentrations of alcohol to hematoxylin on an automated stainer (Sakura Tissue-Tek Prisma, Sakura Finetek, Torrance, Calif.). After a tap water rinse, the tissue on the slide was counterstained with eosin, dehydrated in an alcohol series, cleared in xylene and cover slipped (Sakura Tissue-Tek Glas g2) prior to histological examination by a veterinary diagnostician with experience in the histological examination of swine tissues.

CC1(C)OC(=O)C(OCC2CC2)=C1c1ccc(S(C)(=O)=O)cc1 [firocoxib]
% Exposure (AUClast, piglet vs sow) ([1]; sow dose 0.5 mg/kg): 41.42%
% Exposure (AUC∞, piglet vs sow) ([1]; sow dose 0.5 mg/kg): 43.51%
% Exposure (AUClast, piglet vs sow) ([1]; sow dose 1.0 mg/kg): 46.29%
% Exposure (AUC∞, piglet vs sow) ([1]; sow dose 1.0 mg/kg): 56.50%
% Exposure (AUClast, piglet vs sow) ([1]; sow dose 1.5 mg/kg): 46.83%
% Exposure (AUC∞, piglet vs sow) ([1]; sow dose 1.5 mg/kg): 53.31%
% Exposure (AUC∞, piglet vs sow) ([1]; sow dose 2.0 mg/kg): 26.75%
% Exposure (AUClast, piglet vs sow) ([1]; sow dose 2.0 mg/kg, 2 mg/kg): 25.32% and 25%
mean plasma cortisol concentration at 2±1 h after processing (plasma cortisol; male piglets, sow dose 2.0 mg/kg vs 0.5 mg/kg (P=0.0397) and 1.0 mg/kg (P=0.0416)): lower mean plasma cortisol concentration
peak plasma cortisol of individual piglets (CortCmax) (plasma cortisol; male piglets, 0.5 mg/kg (P=0.014) and 1.5 mg/kg (P=0.05) groups higher than 2.0 mg/kg): significant treatment effect
plasma cortisol concentrations after processing, dose dependence (plasma cortisol; piglets nursing sows given 0.5-2.0 mg/kg IM): reduces plasma cortisol concentrations after processing in a dose-dependent manner; also recorded: dose-dependent reduction of plasma cortisol concentrations
macroscopic lesions on post-mortem examination ([2]; kidney, liver, stomach and small intestines, sows and piglets): No macroscopic lesions were evident
Kidney: Focal interstitial nephritis (number of sows) ([2]; sows, 0.5 mg/kg IM): 2
Kidney: Mild tubular ectasia (number of sows) ([2]; sows, 0.5 mg/kg IM): 1
Kidney: Within normal limits (number of sows) ([2]; sows, 0.5 mg/kg IM): 1
Liver: Within normal limits (number of sows) ([2]; sows, 0.5 mg/kg IM): 4
Small Intestine: Within normal limits (number of sows) ([2]; sows, 0.5 mg/kg IM): 4
Stomach: Within normal limits (number of sows) ([2]; sows, 0.5 mg/kg IM): 4
Kidney: Focal interstitial nephritis (number of sows) ([2]; sows, 1.0 mg/kg IM): 1
Kidney: Mild tubular ectasia (number of sows) ([2]; sows, 1.0 mg/kg IM): 2
Kidney: Within normal limits (number of sows) ([2]; sows, 1.0 mg/kg IM): 1
Liver: Within normal limits (number of sows) ([2]; sows, 1.0 mg/kg IM): 4
Small Intestine: Within normal limits (number of sows) ([2]; sows, 1.0 mg/kg IM): 4
Stomach: Within normal limits (number of sows) ([2]; sows, 1.0 mg/kg IM): 4
Kidney: Focal interstitial nephritis (number of sows) ([2]; sows, 1.5 mg/kg IM): 0
Kidney: Mild tubular ectasia (number of sows) ([2]; sows, 1.5 mg/kg IM): 1
Kidney: Within normal limits (number of sows) ([2]; sows, 1.5 mg/kg IM): 3
Liver: Within normal limits (number of sows) ([2]; sows, 1.5 mg/kg IM): 4
Small Intestine: Within normal limits (number of sows) ([2]; sows, 1.5 mg/kg IM): 4
Stomach: Within normal limits (number of sows) ([2]; sows, 1.5 mg/kg IM): 4
Kidney: Focal interstitial nephritis (number of sows) ([2]; sows, 2.0 mg/kg IM): 2
Kidney: Mild tubular ectasia (number of sows) ([2]; sows, 2.0 mg/kg IM): 1
Kidney: Within normal limits (number of sows) ([2]; sows, 2.0 mg/kg IM): 1
Liver: Within normal limits (number of sows) ([2]; sows, 2.0 mg/kg IM): 4
Small Intestine: Within normal limits (number of sows) ([2]; sows, 2.0 mg/kg IM): 4
Stomach: Within normal limits (number of sows) ([2]; sows, 2.0 mg/kg IM): 4
kidneys with ectatic tubules (number) ([2]; sows, all treatment groups): 5

Reference: US10434083B2, “Transmammary delivery of cyclooxygenase-2 inhibitors for analgesia in neonates” (Iowa State University Research Foundation, Inc., priority 2018, dated 2019)
